# Experiments:
# [1] = Solubility; type: physicochemical
# [2] = tested on: isolated rat heart; assay: Cardiotonic effects on isolated heart (Langendorff perfusion); set-up: species or system Wistar rats
# Procedure: Wistar rats (250-280 g) were anesthetized with chloral hydrate (360 mg/kg intraperitoneally) and heparinized with sodium heparin (1 mg) via sublingual vein. After opening the chest cavity, the hearts were quickly excised and immersed in cold Krebs-Henseleit (K-H) solution. Hearts were retrogradely perfused with 74 centimeters of water pressure via the aorta in a Langendorff apparatus with K-H solution, which was bubbled with a mixture of 95% O2 and 5% CO2. The suture fixed on cardiac apex was connected to a tension transducer which was connected to a polygraph (RM6300, Nihon Kohden, Japan) and a data acquisition workstation (MP150, BIOPAC Systems, USA) to a computer running Acknowledge (version 3.7.1).
compound,measurement,setting,value
"CC(C)(O)[C@@H]1CC[C@](C)([C@H]2[C@@H](O)C[C@@]3(C)[C@@H]4C[C@H](O[C@@H]5O[C@H](CO)[C@@H](O)[C@H](O)[C@H]5O)[C@H]5C(C)(C)[C@@H](O[C@@H]6OC[C@@H](O)[C@H](O)[C@H]6O)CC[C@@]56C[C@@]46CC[C@]23C)O1 [astragaloside IV, reference compound]",solubility,[1],2-4 mg/100 ml
same,Contractility Variation (%),[2]; 1 × 10^−7 mol/L,24.56 ± 12.44^++ %
same,Contractility after administration,[2]; 1 × 10^−7 mol/L,1.73 ± 0.42 g
same,Contractility before administration,[2]; 1 × 10^−7 mol/L,1.42 ± 0.41 g
same,HR Variation (%),[2]; 1 × 10^−7 mol/L,−24 ± 17^+ %
same,HR after administration,[2]; 1 × 10^−7 mol/L,117 ± 52 bpm
same,HR before administration,[2]; 1 × 10^−7 mol/L,151 ± 60 bpm
same,peak derivatives of contractility Variation (%),[2]; 1 × 10^−7 mol/L,21 ± 19^+ %
same,peak derivatives of contractility Δ T/S after administration,[2]; 1 × 10^−7 mol/L,78 ± 14 g/s
same,peak derivatives of contractility Δ T/S before administration,[2]; 1 × 10^−7 mol/L,66 ± 13 g/s
same,peak derivatives of diastolic force Variation (%),[2]; 1 × 10^−7 mol/L,15 ± 9^+ %
same,peak derivatives of diastolic force Δ T/S after administration,[2]; 1 × 10^−7 mol/L,-50 ± 11 g/s
same,peak derivatives of diastolic force Δ T/S before administration,[2]; 1 × 10^−7 mol/L,-44 ± 11 g/s
same,Contractility Variation (%),[2]; 1 × 10^−8 mol/L,6.00 ± 9.25%
same,Contractility after administration,[2]; 1 × 10^−8 mol/L,1.94 ± 0.43 g
same,Contractility before administration,[2]; 1 × 10^−8 mol/L,1.83 ± 0.38 g
same,HR Variation (%),[2]; 1 × 10^−8 mol/L,−6 ± 5%
same,HR after administration,[2]; 1 × 10^−8 mol/L,144 ± 34 bpm
same,HR before administration,[2]; 1 × 10^−8 mol/L,152 ± 30 bpm
same,peak derivatives of contractility Variation (%),[2]; 1 × 10^−8 mol/L,6 ± 15%
same,peak derivatives of contractility Δ T/S after administration,[2]; 1 × 10^−8 mol/L,81 ± 19 g/s
same,peak derivatives of contractility Δ T/S before administration,[2]; 1 × 10^−8 mol/L,76 ± 18 g/s
same,peak derivatives of diastolic force Variation (%),[2]; 1 × 10^−8 mol/L,8 ± 8%
same,peak derivatives of diastolic force Δ T/S after administration,[2]; 1 × 10^−8 mol/L,-46 ± 9 g/s
same,peak derivatives of diastolic force Δ T/S before administration,[2]; 1 × 10^−8 mol/L,-43 ± 10 g/s
same,Contractility Variation (%),[2]; 3 × 10^−8 mol/L,6.98 ± 8.82%
same,Contractility after administration,[2]; 3 × 10^−8 mol/L,1.88 ± 0.40 g
same,Contractility before administration,[2]; 3 × 10^−8 mol/L,1.78 ± 0.46 g
same,HR Variation (%),[2]; 3 × 10^−8 mol/L,−14 ± 13%
same,HR after administration,[2]; 3 × 10^−8 mol/L,145 ± 65 bpm
same,HR before administration,[2]; 3 × 10^−8 mol/L,167 ± 64 bpm
same,peak derivatives of contractility Variation (%),[2]; 3 × 10^−8 mol/L,12 ± 7^+ %
same,peak derivatives of contractility Δ T/S after administration,[2]; 3 × 10^−8 mol/L,76 ± 18 g/s
same,peak derivatives of contractility Δ T/S before administration,[2]; 3 × 10^−8 mol/L,69 ± 19 g/s
same,peak derivatives of diastolic force Variation (%),[2]; 3 × 10^−8 mol/L,10 ± 11%
same,peak derivatives of diastolic force Δ T/S after administration,[2]; 3 × 10^−8 mol/L,-45 ± 12 g/s
same,peak derivatives of diastolic force Δ T/S before administration,[2]; 3 × 10^−8 mol/L,-41 ± 12 g/s
same,Contractility,[2]; isolated rat heart,increased
same,Heart rate,[2]; isolated rat heart,decreased
same,Peak derivatives of contractility,[2]; isolated rat heart,increased
same,Peak derivatives of diastolic force,[2]; isolated rat heart,increased
"CC(C)(O)[C@@H]1CC[C@](C)([C@H]2[C@@H](O)C[C@@]3(C)C4C[C@H](OC5OC(CO)C(O)C(O)C5O)C5C(C)(C)[C@@H](O)CC[C@@]56C[C@@]46CC[C@]23C)O1 (stereo partly drawn) [CMG, Cycloastragenol-6-O-β-D-glucoside]",solubility,[1],40-50 mg/100 ml
same,Contractility Variation (%),[2]; 1 × 10^−7 mol/L,17.08 ± 7.19^++ %
same,Contractility after administration,[2]; 1 × 10^−7 mol/L,2.06 ± 0.59 g
same,Contractility before administration,[2]; 1 × 10^−7 mol/L,1.77 ± 0.52 g
same,HR Variation (%),[2]; 1 × 10^−7 mol/L,−38 ± 22^++ %
same,HR after administration,[2]; 1 × 10^−7 mol/L,92 ± 35 bpm
same,HR before administration,[2]; 1 × 10^−7 mol/L,145 ± 16 bpm
same,peak derivatives of contractility Variation (%),[2]; 1 × 10^−7 mol/L,18 ± 6^++ %
same,peak derivatives of contractility Δ T/S after administration,[2]; 1 × 10^−7 mol/L,86 ± 13 g/s
same,peak derivatives of contractility Δ T/S before administration,[2]; 1 × 10^−7 mol/L,73 ± 11 g/s
same,peak derivatives of diastolic force Variation (%),[2]; 1 × 10^−7 mol/L,14 ± 8^+ %
same,peak derivatives of diastolic force Δ T/S after administration,[2]; 1 × 10^−7 mol/L,-51 ± 14 g/s
same,peak derivatives of diastolic force Δ T/S before administration,[2]; 1 × 10^−7 mol/L,-45 ± 14 g/s
same,Contractility Variation (%),[2]; 1 × 10^−8 mol/L,7.72 ± 8.03%
same,Contractility after administration,[2]; 1 × 10^−8 mol/L,1.97 ± 0.61 g
same,Contractility before administration,[2]; 1 × 10^−8 mol/L,1.81 ± 0.49 g
same,HR Variation (%),[2]; 1 × 10^−8 mol/L,−17 ± 18%
same,HR after administration,[2]; 1 × 10^−8 mol/L,124 ± 25 bpm
same,HR before administration,[2]; 1 × 10^−8 mol/L,156 ± 51 bpm
same,peak derivatives of contractility Variation (%),[2]; 1 × 10^−8 mol/L,6 ± 8%
same,peak derivatives of contractility Δ T/S after administration,[2]; 1 × 10^−8 mol/L,76 ± 19 g/s
same,peak derivatives of contractility Δ T/S before administration,[2]; 1 × 10^−8 mol/L,71 ± 15 g/s
same,peak derivatives of diastolic force Variation (%),[2]; 1 × 10^−8 mol/L,7 ± 9%
same,peak derivatives of diastolic force Δ T/S after administration,[2]; 1 × 10^−8 mol/L,-47 ± 16 g/s
same,peak derivatives of diastolic force Δ T/S before administration,[2]; 1 × 10^−8 mol/L,-44 ± 15 g/s
same,Contractility Variation (%),[2]; 3 × 10^−8 mol/L,5.84 ± 2.92%
same,Contractility after administration,[2]; 3 × 10^−8 mol/L,1.92 ± 0.72 g
same,Contractility before administration,[2]; 3 × 10^−8 mol/L,1.83 ± 0.72 g
same,HR Variation (%),[2]; 3 × 10^−8 mol/L,−13 ± 12%
same,HR after administration,[2]; 3 × 10^−8 mol/L,128 ± 23 bpm
same,HR before administration,[2]; 3 × 10^−8 mol/L,150 ± 41 bpm
same,peak derivatives of contractility Variation (%),[2]; 3 × 10^−8 mol/L,11 ± 9^+ %
same,peak derivatives of contractility Δ T/S after administration,[2]; 3 × 10^−8 mol/L,77 ± 16 g/s
same,peak derivatives of contractility Δ T/S before administration,[2]; 3 × 10^−8 mol/L,70 ± 16 g/s
same,peak derivatives of diastolic force Variation (%),[2]; 3 × 10^−8 mol/L,10 ± 8%
same,peak derivatives of diastolic force Δ T/S after administration,[2]; 3 × 10^−8 mol/L,-51 ± 18 g/s
same,peak derivatives of diastolic force Δ T/S before administration,[2]; 3 × 10^−8 mol/L,-46 ± 15 g/s
same,Contractility,[2]; isolated rat heart,increased
same,Heart rate,[2]; isolated rat heart,decreased
same,Peak derivatives of contractility,[2]; isolated rat heart,increased
same,Peak derivatives of diastolic force,[2]; isolated rat heart,increased
same,cardiotonic effect (conclusion),[2]; isolated rat heart,exhibited cardiotonic effects
